Here are results for three compounds from patent US11912705B2, “Cathinone derivatives, pharmaceutical formulations, and methods” (The Corporation of Mercer University, priority 2020, dated 2024).

The term IC50 denotes the concentration that gives 50% inhibition. The term Ki denotes the dissociation constant of the complex between target and ligand, obtained from inhibition or displacement.

Structures are written as SMILES.

Assay [1] relates to mice on the FVB background. The assay can be described thus: Defecation (fecal pellets) / gastrointestinal motility in mice. The format is in vivo. The conditions noted are these: 2.8 mg/kg, s.c. On the procedure:
Since functional inhibition of neurotransmitter transporters, particularly DAT, is classically known to cause psychomotor stimulation, the ability of Compound (1) to induce this effect in mice was assessed, directly comparing results to α-PHP, a pyrrolidine-substituted analog of Compound (1). Adult male and female mice on the FVB background were injected subcutaneously and then immediately placed inside of an open field chamber, where their activity was recorded automatically for 20-min by an overhead camera connected to a PC running EthoVision XT software. […] Data are means (±SEM).
Consistent with pre-synaptic M2R antagonist activity, also observed was an increase in defecation caused by Compound (1) (FIG. 4). […] Regarding FIG. 4, Compound (1) (2.8 mg/kg, s.c.) increased gastrointestinal motility compared to vehicle and α-PHP (2.8 mg/kg, s.c.) treated mice. Scatter dot plots with means (±SEMs).

For the next assay, the target named is T1, Dopamine transporter (Homo sapiens, UniProt Q01959).
T1 construct: Eurofins/Cerep (contract testing)
Kind of assay: Dopamine transporter uptake (h). The format is cell-based. The procedure:
(§1) Compounds (1) and (2) were tested at several concentrations for IC50 or EC50 determination at target receptors. […] For antagonist assays, Kb affinity values were calculated from IC50 values using GraphPad Prism 9 (San Diego, Calif. USA).

For assay [2], the target named is T2, Norepinephrine transporter (Homo sapiens, UniProt P23975).
T2 construct: Eurofins/Cerep (contract testing)
The assay can be described thus: Norepinephrine transporter uptake (h). The assay is classed as cell-based. The procedure: For antagonist assays, Kb affinity values were calculated from IC50 values using GraphPad Prism 9 (San Diego, Calif. USA).

For the next assay, the target named is T3, Serotonin transporter (Rattus norvegicus, UniProt P31652).
T3 construct: tissue Eurofins/Cerep (contract testing); host or cells: rat brain synaptosomes (per the earlier reading)
The assay can be described thus: Serotonin transporter uptake (rat brain synaptosomes). The format is biochemical. The procedure:
as §1

The target of another assay is T4, M2Rs (Homo sapiens, UniProt P08172).
T4 sequence (P08172 1-466): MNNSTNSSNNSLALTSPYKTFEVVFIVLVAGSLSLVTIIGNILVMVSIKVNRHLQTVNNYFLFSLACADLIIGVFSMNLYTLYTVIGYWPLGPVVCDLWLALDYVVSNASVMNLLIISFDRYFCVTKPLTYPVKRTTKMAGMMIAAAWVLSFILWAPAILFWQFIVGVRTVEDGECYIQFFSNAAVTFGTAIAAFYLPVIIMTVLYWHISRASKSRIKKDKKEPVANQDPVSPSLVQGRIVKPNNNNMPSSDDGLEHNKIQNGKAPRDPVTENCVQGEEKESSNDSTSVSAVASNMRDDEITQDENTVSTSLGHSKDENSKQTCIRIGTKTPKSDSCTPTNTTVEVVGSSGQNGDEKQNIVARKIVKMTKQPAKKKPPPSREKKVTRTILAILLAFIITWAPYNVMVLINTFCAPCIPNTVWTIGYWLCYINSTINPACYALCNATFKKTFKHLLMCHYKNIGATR
Kind of assay: M2R β-arrestin recruitment. The format is cell-based. From the text: Data are shown as normalized means (±SEM) of two, independent determinations, with oxotremorine tested at each concentration in duplicate and α-PHP tested in quadruplicate. [*Basal signaling is defined as the normalized RLU emitted by untreated cells.]

Assay [3] addresses T5, human NET (Homo sapiens, UniProt P23975). Conditions: from Eshleman et al. 2017, cited from earlier work.
Assay [4] deals with T6, human DAT (Homo sapiens, UniProt Q01959). The conditions noted are these: from Eshleman et al. 2017, cited from earlier work.
The target in assay [5] is T7, human SERT (Homo sapiens, UniProt P31645). The conditions noted are these: read-out: Affinity (Ki) SERT; from Eshleman et al. 2017; cited from earlier work.
The target in a further assay is T8, human M1Rs (Homo sapiens, UniProt P11229).
T8 construct: host or cells: HEK293 (CRL-1573, ATCC), transient
T8 sequence (P11229 1-460): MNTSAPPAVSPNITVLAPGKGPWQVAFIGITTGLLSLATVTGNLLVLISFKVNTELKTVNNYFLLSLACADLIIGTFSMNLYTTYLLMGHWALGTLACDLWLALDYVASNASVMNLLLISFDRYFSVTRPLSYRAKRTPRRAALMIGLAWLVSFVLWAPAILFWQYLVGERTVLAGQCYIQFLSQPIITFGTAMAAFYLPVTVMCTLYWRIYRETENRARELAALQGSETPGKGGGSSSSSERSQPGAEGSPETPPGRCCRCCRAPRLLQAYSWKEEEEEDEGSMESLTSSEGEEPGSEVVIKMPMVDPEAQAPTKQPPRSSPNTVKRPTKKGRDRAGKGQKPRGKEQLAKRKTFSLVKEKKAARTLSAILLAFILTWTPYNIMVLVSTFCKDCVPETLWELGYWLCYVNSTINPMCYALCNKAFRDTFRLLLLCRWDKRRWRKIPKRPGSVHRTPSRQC
The assay can be described thus: M1R phosphoinositide hydrolysis (IP-One HTRF). The assay is classed as cell-based. A general note: In TR-FRET formats the signal depends on donor and acceptor labels being close together.

For assay [6], the target named is T5, human NET. Conditions: read-out: Uptake Inhibition (IC50) NET; from Eshleman et al. 2017; cited from earlier work.
Assay [7] deals with T7, human SERT. The conditions noted are these: read-out: Uptake Inhibition (IC50) SERT; from Eshleman et al. 2017; cited from earlier work.
The target in assay [8] is T6, human DAT. The conditions noted are these: read-out: Uptake Inhibition (IC50) DAT; from Eshleman et al. 2017; cited from earlier work.

T5 sequence (P23975 whole entry): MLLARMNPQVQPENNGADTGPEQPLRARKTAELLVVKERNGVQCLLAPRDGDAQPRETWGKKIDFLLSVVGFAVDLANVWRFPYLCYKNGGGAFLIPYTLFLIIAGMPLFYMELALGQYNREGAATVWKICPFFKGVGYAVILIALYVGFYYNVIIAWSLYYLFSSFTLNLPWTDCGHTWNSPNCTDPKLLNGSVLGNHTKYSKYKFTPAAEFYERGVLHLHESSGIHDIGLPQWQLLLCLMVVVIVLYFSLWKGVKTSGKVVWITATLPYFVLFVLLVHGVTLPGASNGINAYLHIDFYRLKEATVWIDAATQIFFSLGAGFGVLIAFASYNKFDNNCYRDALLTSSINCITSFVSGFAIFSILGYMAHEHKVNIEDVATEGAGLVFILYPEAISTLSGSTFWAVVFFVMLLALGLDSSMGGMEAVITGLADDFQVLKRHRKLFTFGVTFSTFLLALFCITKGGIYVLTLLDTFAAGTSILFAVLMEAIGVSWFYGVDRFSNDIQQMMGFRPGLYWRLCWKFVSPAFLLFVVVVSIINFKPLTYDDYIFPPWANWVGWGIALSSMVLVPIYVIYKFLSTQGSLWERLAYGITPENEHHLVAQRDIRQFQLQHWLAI
T6 sequence (Q01959 whole entry): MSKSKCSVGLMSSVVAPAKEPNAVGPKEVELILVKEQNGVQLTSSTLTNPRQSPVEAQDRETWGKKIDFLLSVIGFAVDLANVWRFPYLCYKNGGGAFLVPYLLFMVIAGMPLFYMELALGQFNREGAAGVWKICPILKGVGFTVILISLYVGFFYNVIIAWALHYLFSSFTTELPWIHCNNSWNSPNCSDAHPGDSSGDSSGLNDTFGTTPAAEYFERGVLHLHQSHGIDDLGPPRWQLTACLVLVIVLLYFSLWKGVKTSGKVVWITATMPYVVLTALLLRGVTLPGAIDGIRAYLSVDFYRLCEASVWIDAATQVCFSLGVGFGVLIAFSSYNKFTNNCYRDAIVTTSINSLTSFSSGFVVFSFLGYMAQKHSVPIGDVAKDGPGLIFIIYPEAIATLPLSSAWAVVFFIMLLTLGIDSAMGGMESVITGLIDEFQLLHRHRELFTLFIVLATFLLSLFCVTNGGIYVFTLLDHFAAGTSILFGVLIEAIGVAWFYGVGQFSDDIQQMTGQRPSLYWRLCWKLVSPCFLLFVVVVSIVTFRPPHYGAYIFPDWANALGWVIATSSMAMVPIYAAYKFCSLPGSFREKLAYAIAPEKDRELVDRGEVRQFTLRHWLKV
T2 sequence (P23975 whole entry): as the sequence (P23975 whole entry) above
T1 sequence (Q01959 whole entry): as the sequence (Q01959 whole entry) above
T7 sequence (P31645 whole entry): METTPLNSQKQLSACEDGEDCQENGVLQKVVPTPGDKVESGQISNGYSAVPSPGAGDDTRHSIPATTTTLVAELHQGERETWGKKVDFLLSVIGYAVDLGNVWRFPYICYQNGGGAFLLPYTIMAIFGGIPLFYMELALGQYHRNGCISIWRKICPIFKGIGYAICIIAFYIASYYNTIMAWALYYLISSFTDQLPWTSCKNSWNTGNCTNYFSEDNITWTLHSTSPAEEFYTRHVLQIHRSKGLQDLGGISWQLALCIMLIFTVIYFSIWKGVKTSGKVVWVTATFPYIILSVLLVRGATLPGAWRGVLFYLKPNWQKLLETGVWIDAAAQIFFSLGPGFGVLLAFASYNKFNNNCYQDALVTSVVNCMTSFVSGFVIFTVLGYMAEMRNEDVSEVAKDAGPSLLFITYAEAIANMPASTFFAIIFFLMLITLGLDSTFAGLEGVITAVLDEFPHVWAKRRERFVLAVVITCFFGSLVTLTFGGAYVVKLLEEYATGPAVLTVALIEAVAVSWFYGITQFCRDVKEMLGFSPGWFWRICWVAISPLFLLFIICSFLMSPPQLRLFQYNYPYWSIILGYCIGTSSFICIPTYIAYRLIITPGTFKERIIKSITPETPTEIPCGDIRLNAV
T3 sequence (P31652 whole entry): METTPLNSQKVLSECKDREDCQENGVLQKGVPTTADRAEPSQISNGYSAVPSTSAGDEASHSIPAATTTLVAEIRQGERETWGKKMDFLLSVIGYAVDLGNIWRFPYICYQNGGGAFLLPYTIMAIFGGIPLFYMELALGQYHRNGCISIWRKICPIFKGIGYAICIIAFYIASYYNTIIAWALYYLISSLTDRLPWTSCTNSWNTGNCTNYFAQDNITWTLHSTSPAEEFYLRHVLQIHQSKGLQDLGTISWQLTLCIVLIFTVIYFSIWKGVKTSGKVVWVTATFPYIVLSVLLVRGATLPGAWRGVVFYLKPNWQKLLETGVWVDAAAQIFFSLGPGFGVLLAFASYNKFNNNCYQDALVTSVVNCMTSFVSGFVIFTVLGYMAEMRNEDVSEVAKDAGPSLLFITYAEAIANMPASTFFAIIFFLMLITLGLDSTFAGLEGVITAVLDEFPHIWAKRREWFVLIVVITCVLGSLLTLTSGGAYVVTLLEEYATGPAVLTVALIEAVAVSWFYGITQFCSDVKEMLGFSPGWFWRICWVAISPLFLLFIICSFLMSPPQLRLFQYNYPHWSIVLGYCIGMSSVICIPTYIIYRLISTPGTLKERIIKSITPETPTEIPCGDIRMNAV

Turning to `CCCCC(C(=O)c1ccccc1)N1CCCCC1` (stereo not drawn) [Compound (1), 1-phenyl-2-(piperidin-1-yl)hexan-1-one], in [1], the “number of fecal pellets (defecation, gastrointestinal motility)” value was “significantly higher than both vehicle (p<0.0001) and α-PHP treated mice”. Moreover, the IC50 on Dopamine transporter was 47 nM; in [2], 1300 nM; at Serotonin transporter, 37000 nM.
On to `CCCCC(C(=O)c1ccccc1)N1CCCCCC1` (stereo not drawn) [Compound (2), 2-(azepan-1-yl)-1-phenylhexan-1-one], for which the IC50 on Dopamine transporter was 70 nM; in assay [2], 1100 nM; against Serotonin transporter it was 12000 nM.
Turning to `CCCCC(C(=O)c1ccccc1)N1CCCC1` (stereo not drawn) [α-PHP, 1-phenyl-2-(pyrrolidin-1-yl)hexan-1-one], the “number of fecal pellets (defecation, gastrointestinal motility)” value in assay [1] was “no significant difference was observed between the vehicle and α-PHP groups”. Besides, the Kb at M2Rs came out at 501 nM; at human M1Rs it was 1380 nM. Also, the “affinity at NET, fold higher than α-PPP” value on human NET [3] is 6 fold. Besides, the Ki on human NET [3] (read-out: Affinity (Ki) NET) is 300 nM; on human DAT [4] (read-out: Affinity (Ki) DAT) it was 16 nM; at human SERT [5], 33000 nM. For the same compound, the “affinity at DAT, fold higher than α-PPP” value on human DAT [4] is 81 fold. Also, the 50% inhibitory concentration (IC50) was 30 nM at human NET [6], 40000 nM on human SERT [7] and 22 nM at human DAT [8].
